The results in this text go back to ChEMBL document CHEMBL5126599, “Development of S-aryl dithiocarbamate derived novel antiproliferative compound exhibiting tubulin bundling” (Bioorg Med Chem, 2022).

The subject of one assay is A549. Briefly: Antiproliferative activity against human A549 cells assessed as reduction in cell viability incubated for 72 hrs by MTT assay. Type of assay: functional, cell-based. The settings on record: A549, 72 h. Background: Tetrazolium assays rely on reduction of a dye to a coloured formazan, in cell work by metabolically active cells.
The subject of assay [1] is HeLa. Briefly: Antiproliferative activity against human HeLa cells assessed as reduction in cell viability incubated for 72 hrs by MTT assay. Type of assay: functional, cell-based.
The test system of a further assay is MCF7. Put plainly: Antiproliferative activity against human MCF7 cells assessed as reduction in cell viability incubated for 72 hrs by MTT assay. The settings on record: MCF7, 72 h. Type of assay: functional, cell-based.
The subject of the next assay is MDA-MB-231. Put plainly: Antiproliferative activity against human MDA-MB-231 cells assessed as reduction in cell viability incubated for 72 hrs by MTT assay. In kind it is functional, cell-based. The settings on record: MDA-MB-231, 72 h.
Assay [2] relates to HeLa. Briefly: Antiproliferative activity against human HeLa cells assessed as reduction in number of colonies at 0.432 to 0.864 uM for 72 hrs with media renew every 2 days and measured upto 2 weeks by crystal violet staining based microscopic analysis. Type of assay: functional, cell-based. The note with it: dose 0.432-0.864 µM, DDE = dose-dependent effect.
For assay [3], the system named is HeLa. Briefly: Induction of cell cycle arrest in human HeLa cells assessed as accumulation at G2/M phase at 0.432 to 0.864 uM for 72 hrs by DAPI staining based fluorescence microscopy. In kind it is functional. The note with it: dose 0.432-0.864 µM, DDE = dose-dependent effect.
Assay [4] has as its system HeLa. Put plainly: Induction of apoptosis in human HeLa cells assessed as fold change as increase in necrotic cells at 0.432 to 0.864 uM for 72 hrs by Annexin-V/PI staining based fluorescence microscopy relative to control. In kind it is functional. The settings on record: dose 0.432-0.864 µM.
Assay [5] relates to HeLa. Put plainly: Induction of cell cycle arrest in human HeLa cells assessed as fold change as increase in accumulation at G2/M phase at 0.432 to 0.864 uM for 72 hrs by PI staining based flow cytometry relative to control. In kind it is functional. The note with it: dose 0.432-0.864 µM.
The test system of assay [6] is HeLa. Briefly: Induction of apoptosis in human HeLa cells assessed as fold change as increase in apoptotic cells at 0.432 to 0.864 uM for 72 hrs by PI staining based flow cytometry relative to control. Type of assay: functional. The settings on record: dose 0.432-0.864 µM. For orientation: In flow cytometry, cells or beads pass a laser one at a time.
In assay [7] the test system is HeLa. Put plainly: Induction of cell cycle arrest in human HeLa cells assessed as increase in cyclin B1 expression at 0.432 to 0.864 uM for 72 hrs by Western blot analysis. Type of assay: functional, cell-based. The settings on record: dose 0.432-0.864 µM, DDE = dose-dependent effect.
Assay [8] relates to HeLa. Put plainly: Induction of apoptosis in human HeLa cells assessed as increase in p53 protein expression at 0.432 to 0.864 uM for 72 hrs by Western blot analysis. In kind it is functional, cell-based. The note with it: dose 0.432-0.864 µM, DDE = dose-dependent effect.
The test system of assay [9] is HeLa. Briefly: Induction of apoptosis in human HeLa cells assessed as increase in p21 protein expression at 0.432 to 0.864 uM for 72 hrs by Western blot analysis. Type of assay: functional, cell-based. The settings on record: dose 0.432-0.864 µM. Background: In western blotting, separated proteins are transferred to a membrane and probed.
The target of assay [10] is T1, Tubulin (Homo sapiens) (UniProt P68371+Q9H4B7+P0DPH7+P68366+Q13509+Q71U36+P04350+Q3ZCM7+P07437+P68363+Q9BQE3+Q6PEY2+Q13885+Q9BVA1+Q9BUF5). Briefly: Induction of microtubule stabilization in human HeLa cells assessed as microtubule bundling at 0.5 to 1 uM for 24 hrs by DAPI staining based fluorescence microscopy. Type of assay: cell-based. The settings on record: dose 0.5-1 µM, DDE = dose-dependent effect.

Assay [11] concerns the target T1, Tubulin (Homo sapiens). Briefly: Induction of microtubule stabilization in human HeLa cells assessed as increase in alpha-tubulin level in cell pellet at 0.5 to 1 uM for 48 hrs by Western blot analysis. Type of assay: cell-based. The note with it: dose 0.5-1 µM, DDE = dose-dependent effect.
The target in assay [12] is T1, Tubulin (Homo sapiens). Briefly: Induction of microtubule stabilization in human HeLa cells assessed as microtubule bundling at 0.5 uM for 24 hrs by DAPI staining based fluorescence microscopy. In kind it is cell-based.
For assay [13], the target named is T1, Tubulin (Homo sapiens). Put plainly: Induction of microtubule stabilization in human HeLa cells assessed as increase in alpha-tubulin level in cell pellet at 0.5 uM for 48 hrs by Western blot analysis. The settings on record: DDE = dose-dependent effect. In kind it is cell-based.

The source made the active and inactive calls. The rule behind the calls is not given here.

The IC50 is the concentration needed to halve the response being measured.

In the case of `Cc1cccc(SC(=S)N2CCN(C(=O)OC(C)(C)C)CC2)c1`, in the assay on A549, the IC50 turned out to be 914 nM.

Consider `S=C(Sc1ccccc1)N1CCOCC1`, for which, in the assay on A549, the IC50 came out at 2520 nM. Take `CC(C)(C)OC(=O)N1CCN(C(=S)Sc2ccc(C(C)(C)C)cc2)CC1`: the IC50 in the assay on A549 was found to be 769 nM. Still for that read-out and setting: for `CCCCN(CCCC)C(=S)Sc1ccccc1` the value was 9760 nM; for `COc1ccc(SC(=S)N2CCN(C(=O)OC(C)(C)C)CC2)cc1`, 712 nM. For the molecule `Cc1ccccc1SC(=S)N1CCN(C(=O)OC(C)(C)C)CC1`, the IC50 in the assay on A549 was determined as 2270 nM. For `CC(C)(C)c1ccc(SC(=S)N2CCCCC2)cc1`, the IC50 in the assay on A549 was determined as 9130 nM. Consider `Cc1ccc(C)c(SC(=S)N2CCN(C(=O)OC(C)(C)C)CC2)c1`, for which, in the assay with A549, the IC50 is 539 nM. Consider `Cc1ccc(SC(=S)N2CCN(C(=O)OC(C)(C)C)CC2)cc1`, for which the IC50 in the assay with A549 came to 2100 nM. Consider `CC(C)(C)OC(=O)N1CCN(C(=S)Sc2cccc(Cl)c2)CC1`, for which, in the assay on A549, the IC50 was determined as 634 nM. In the case of `CC(C)(C)OC(=O)N1CCN(C(=S)Sc2ccc(F)cc2)CC1`, the IC50 with A549 worked out at 1560 nM. Regarding `CC(C)(C)OC(=O)N1CCN(C(=S)Sc2ccc(Cl)cc2)CC1`, the IC50 with A549 was determined as 1070 nM.

On to `CC(C)(C)OC(=O)N1CCN(C(=S)Sc2ccc(Br)cc2)CC1`, for which, in the assay on A549, the IC50 was 1820 nM. For the molecule `CC(C)(C)OC(=O)N1CCN(C(=S)Sc2ccccc2)CC1`, the IC50 stood at 447 nM in the assay on A549, 432 nM in the assay on HeLa [1], 1750 nM in the assay on MCF7 and 615 nM with MDA-MB-231. For the same molecule, the Activity entry in the assay with HeLa [2], in the assay with HeLa [3], in the assay on HeLa [7], with HeLa [8], on Tubulin (Homo sapiens) [10] and on Tubulin (Homo sapiens) [11] was “Dde” in each case. The “fold change (FC)” value in the assay on HeLa [4] turned out to be 3; with HeLa [5], 4; in the assay with HeLa [6], 4. Besides, the result with HeLa [9] was Active. For `Cc1cc(C)c(SC(=S)N2CCN(C(=O)OC(C)(C)C)CC2)c(C)c1`, the IC50 in the assay on A549 stood at 1460 nM. Turning to `CC(=O)O[C@H]1C(=O)[C@@]2(C)[C@H]([C@H](OC(=O)c3ccccc3)[C@]3(O)C[C@H](OC(=O)[C@H](O)[C@@H](NC(=O)c4ccccc4)c4ccccc4)C(C)=C1C3(C)C)[C@]1(OC(C)=O)CO[C@@H]1C[C@@H]2O`, the outcome on Tubulin (Homo sapiens) [12] was Active. Moreover, at Tubulin (Homo sapiens) [13], the Activity result is “Dde”. Turning to `S=C(Sc1ccccc1)N1CCCCC1`, the IC50 in the assay on A549 stood at 7930 nM. Still for that read-out and setting: as for `CC(C)(C)OC(=O)N1CCN(C(=S)Sc2ccccc2Cl)CC1`, the figure is 1560 nM.
